Three compounds from patent US12607406B2, “Recombinant virus, composition comprising the same, and uses thereof” (ACADEMIA SINICA, priority 2016, dated 2026) can be followed below.

In assay [1] the test system is Influenza A virus A/WSN/33 (H1N1) neuraminidase (NA), wild type, SEQ ID NO: 4. The format is biochemical.
For assay [2], the system named is Influenza A virus A/WSN/33 (H1N1) neuraminidase (NA) on virus, wild type, SEQ ID NO: 4. In kind it is biochemical.

Consider `CC(=O)N[C@H]1[C@H]([C@H](O)[C@H](O)CO)O[C@@](O[C@H]2[C@@H](O)[C@@H](CO)O[C@@H](O[C@H]3[C@H](O)[C@@H](NC(C)=O)C(O)O[C@@H]3CO)[C@@H]2O)(C(=O)O)C[C@@H]1O` (stereo partly drawn) [3SLN, 3′-sialyl-N-acetyllactosamine], for which, in assay [1], the Kcat is 688.2 s⁻¹; the Km (as a rule, the substrate concentration at which the rate is half of its maximum) amounted to 125 µM; the Vmax (usually the rate approached at saturating substrate) amounted to 7.04 nM/s. Besides, in assay [2], the Km is 115 µM.
In the case of `CC(=O)N[C@H]1[C@H]([C@H](O)[C@H](O)CO)O[C@@](Oc2ccc3c(C)cc(=O)oc3c2)(C(=O)O)C[C@@H]1O` [4-Muα-Neu5Ac, 2-(4-methylumbelliferyl)-α-D-N-acetylneuraminic acid], in assay [1], the Kcat worked out at 514.3 s⁻¹, the Km worked out at 585 µM and the maximum rate (Vmax) turned out to be 5.025 nM/s. For the same compound, the Km in assay [2] came to 487 µM.
For `CC(=O)N[C@H]1[C@H]([C@H](O)[C@H](O)CO)O[C@@](OC[C@H]2O[C@@H](O[C@H]3[C@H](O)[C@@H](NC(C)=O)C(O)O[C@@H]3CO)[C@H](O)[C@@H](O)[C@H]2O)(C(=O)O)C[C@@H]1O` (stereo partly drawn) [6SLN, 6′-sialyl-N-acetyllactosamine], in assay [1], the Kcat worked out at 104.2 s⁻¹, the Km came out at 679 µM and the Vmax is listed as 1.07 nM/s. Also, the Km in assay [2] worked out at 534 µM.
